Test results as given in US11596623B2, “Methods for treating virus infection or proliferation” (HOWARD UNIVERSITY, priority 2018, dated 2023).

What was measured:
Type in all cases: cell-based
[1] = system: HSV-1; assay: Plaque formation unit (pfu) assay
Description: The viral plaque assay was performed as previously described [Tang Q, Li L, Ishov A M, Revol V, Epstein A L, Maul G G. Determination of minimum herpes simplex virus type 1 components necessary to localize transcriptionally active DNA to ND10. J Virol. 2003; 77:5821-28.] with slight modifications. The HSV-1 strain 17 was diluted serially in a volume of 1 mL. Then 300 ul of the virus was added onto confluent HEp-2 cell monolayers in 12-well plates; each dilution had 3 wells. After adsorption for 2 h, the medium was removed and the cells were washed twice with serum-free DMEM and overlaid with phenol-free DMEM containing 5% FCS, 0.5% low-melting point agarose (GIBCO), and 1% penicillin-streptomycin. The cells were incubated at 37° C. for 48 hours. Neutral red was added on the agarose to stain the live cells. The plaques were counted and reported as pfu per mL. Mean pfu was determined after averaging the number of pfu from different dilutions. Student's t-tests were used to statistically analyze differences between the groups; a p-value lower than 0.005 was used as the threshold for a significant difference.
To assess the efficacy of SD-29 on the HSV-1 proliferation, a plaque assay was performed. We wanted to quantitatively assess whether SD-29 could inhibit viral replication. Because HSV-1 was able to enter cultured HEp-2 cells, we evaluated whether this entry led to productive virus replication.
In Table 1, confluent monolayers of HEp-2 cells were infected with serially diluted HSV-1 virus and were fixed and Giemsa stained at 0, 6, 12, and 24 hr post infection. The numbers of plaques were visualized. The number of plaques formed post infection decreased in the presence of SD-29 in a time-dependent manner.

[2] = system: HSV-1; assay: Immunofluorescence and confocal microscopy of ICP0; conditions: 10 μM, HSV-1 MOI 1.0, 30 h
Description: The HEp-2 cells were infected with HSV-1 at an MOI of 1.0 for 30 h along with the indicated compounds and control. The no-virus control (A), vehicle DMSO treated (B) and SD29-14 10 μM treated (C) cells were fixed with 4% paraformaldehyde and stained with anti-ICP0-FITC (green) and DAPI for DNA (blue) in the nucleus. The slides were observed under a Nikon confocal microscope (60× magnification lens) and pictures were taken to show infected cells (green) and total cells (DAPI). All scale bars correspond to 20 μm. The imaging experiments were performed three independent times, and the results shown represent one of the three experiments. (D) Quantification of fluorescent cells by Image based cell sorting in a Cellometer (Nexcelom Vision). […] The cells were prepared by immunostaining with ICP0 antibody after 24-h incubation with the indicated compounds. The total cell counts were 1.01×10^6/ml, 4.69×10^6/ml, and 5.36×10^6/ml for DMSO, SD29-14 (10 μM), and SD29-14 (100 μM) respectively. The numbers show the mean±SE of three replicates.
Hep-2 cells were grown to about 80% confluency in 12 well plate and the cells were co-infected with HSV-1 at an MOI of 1.0 for 30 h along with the indicated inhibitor compounds and control. The cells were fixed at room temperature with 4% paraformaldehyde-PBS for 15 minutes and then permeabilized at room temperature by 0.5% Triton X-100-PBS (pH 7.4) for 10 min. […]

[3] = system: HSV-1; assay: HSV-1 cytopathic effect in HEp-2 cells under microscope; conditions: 24 h, different concentrations, versus DMSO
Description: The HSV-1 virus and the indicated concentration of compounds were added and incubated for 24 h. After washing way the virus with PBS, image was taken under a compound microscope.

SMILES: Nn1c(S)nnc1-c1ccc(F)cc1 [SD-29]
- Plaque formation unit ([1]; 0 hpi): 0 ± 0 PFU/mL
- Plaque formation unit ([1]; 6 hpi): 0 ± 0 PFU/mL
- Plaque formation unit ([1]; 12 hpi): 1 ± 0.08 × 10^2 PFU/mL
- Plaque formation unit ([1]; 24 hpi): 1.8 ± 0.04 × 10^5 PFU/mL
- production of infectious virions ([1]; infected HEp-2 cells, versus DMSO): failed to produce significant infectious virions

SMILES: Nn1c(S)nnc1-c1cc(Cl)cc(Cl)c1 [SD29-14]
- ICP0 protein expression (immunofluorescence) [2]: effectively eliminated any expression of ICP0 protein
- cytopathic effect of HSV-1 [3]: do not show the cytopathic effect
